Marks after values point to notes of the source that are not given here.

For one assay, the system named is E. coli CIP. The experiment in a line: Growth curve inhibition of E. coli CIP. The assay is classed as cell-based, Escherichia coli. Conditions: growth curves of 8μM nisin and 8μM GNT16; Luria-Bertani broth, 37°C.
The test system of another assay is L. lactis MG1363. Format: cell-based, Lactococcus lactis. Conditions: from MIC values. The procedure:
(§1) L. lactis strains were cultured in M17 broth supplemented with 0.5% (w/v) glucose (GM17) for genetic manipulation or in minimal expression medium (MEM) for protein expression at 30°C (Rink et al., [2005]). E. coli CECT101 was grown in Luria-Bertani broth aerated by shaking (200 rpm) at 37°C.
(§2) The indicator strains were first cultured until OD (600 nm) reached 0.5. When testing the MIC value, the culture was diluted 1000 times with the appropriate medium. All the tests were performed with a temperature controlled plate reader (Tecan infinite F200, Tecan Group AG) in a 96-well plate (Greiner Bio-one). The peptides were first diluted in gradient with medium and then mixed with diluted indicator strains. The final concentration of the peptides ranged from 0.00625 to 0.8 μM against L. lactis MG1363 and from 0.25 to 32 μM against E. coli CECT101 in 100 μl volume. The plate was incubated at 30°C or 37°C for 18 h depending on the indicator strain being L. lactis or E. coli, respectively. OD (600 nm) was checked every 30 min. For E. coli, 2 min of shaking was performed before every check. When testing the activity of nisin against E. coli in the presence of EDTA, an EDTA solution was prepared and added to a final concentration of 50, 110, or 250 μM. The minimal concentration of peptide causing no observed growth of indicator strains was considered as the MIC value.

Another assay deals with E. coli CECT101. The assay is classed as cell-based, Escherichia coli. Particulars: growth curves, 18 h; experiment repeated three times. The procedure: as §1, §2
The subject of assay [1] is Enterobacter aerogenes CECT684. The experiment in a line: Growth curve inhibition of Enterobacter aerogenes CECT684. Format: cell-based. Particulars: growth curves of 8μM nisin and 8μM GNT16; GM17, 37°C.
The next assay concerns E. coli O157:H7. Conditions: indicator strain E. coli O157:H7; ref Bikker et al., [2006]; cited from earlier work. An excerpt: (§3) Table 1 List of selected peptides with anti-Gram-negative bacteria activity. | column: MIC(μM)
The next assay deals with E. coli UB1005. Particulars: indicator strain E. coli UB1005; ref Hilpert et al., [2005]; cited from earlier work.
Excerpt: as §3

The subject of a further assay is E. coli ATCC 700928. Particulars: indicator strain E. coli ATCC 700928; ref Sainath Rao et al., [2013]; cited from earlier work.
Excerpt: as §3

Take `C=C1NC(=O)[C@H]([C@@H](C)CC)NC(=O)[C@H](NC(=O)/C(=C/C)NC(=O)[C@@H](N)[C@@H](C)CC)CSC[C@@H](C(=O)N[C@H]2C(=O)N3CCC[C@H]3C(=O)NCC(=O)N[C@H](C(=O)N[C@@H](CCCCN)C(=O)N[C@H]3C(=O)NCC(=O)N[C@@H](C)C(=O)N[C@@H](CC(C)C)C(=O)N[C@@H](CCSC)C(=O)NCC(=O)N[C@H](C(=O)N[C@@H](CC(N)=O)C(=O)N[C@@H](CCSC)C(=O)N[C@@H](CCCCN)C(=O)N[C@H]4C(=O)N[C@@H](C)C(=O)N[C@H]5C(=O)N[C@@H](CS[C@H]4C)C(=O)N[C@@H](Cc4c[nH]cn4)C(=O)N[C@H](C(=O)N[C@@H](CO)C(=O)N[C@H](C(=O)N[C@@H](Cc4c[nH]cn4)C(=O)N[C@H](C(=O)NC(=C)C(=O)N[C@@H](CCCCN)C(=O)N4CCC[C@H]4C(=O)N[C@@H](CCCNC(=N)N)C(=O)N4CCC[C@H]4C(=O)N4CCC[C@H]4C(=O)N[C@@H](Cc4c[nH]cn4)C(=O)N4CCC[C@H]4C(=O)N[C@@H](CCCNC(=N)N)C(=O)N[C@@H](CC(C)C)C(=O)O)C(C)C)[C@@H](C)CC)CS[C@H]5C)CS[C@H]3C)CS[C@H]2C)NC(=O)[C@H](CC(C)C)NC1=O` [GNT16]: the “Inhibitory activity against E. coli CIP compared with nisin” value in the assay with E. coli CIP is listed as “equal or slightly better inhibitory activity than nisin”. Also, the “Decrease of activity against L. lactis MG1363 relative to nisin” value with L. lactis MG1363 stood at 32 times. Also, the “Concentration that fully inhibits growth of E. coli CECT101 within 18 h (Figure 3)” value in the assay on E. coli CECT101 turned out to be 8 µM. In addition, the “Inhibitory activity against Enterobacter aerogenes CECT684 compared with nisin” value in assay [1] is “equal or slightly better inhibitory activity than nisin”.

On to GKPRPYSPRPTSHPRPIRV [Drosocin], for which, in the assay on E. coli O157:H7, the MIC is 25^c μM.

On to RIWVIWRR-NH2 [Bac8c], for which, in the assay with E. coli UB1005, the MIC is 1.7^e μM.

For RLLFRKIRRLKR [EC5], in the assay with E. coli ATCC 700928, the MIC was 4.8^d μM.

The record behind these values is publication PMC4745983 (Frontiers in Cell and Developmental Biology, 2016).
